Patent publication US20230414554A1, “COMPOUNDS FOR TREATING HEPATOCELLULAR CARCINOMA” (SERVICIO ANDALUZ DE SALUD, priority 2020, published 2023)

Key:
THLE-2 cells = experiment: Cell proliferation/viability of cell line derived from normal hepatocytes; format: cell-based; conditions: after 72 h; pladienolide-B 10^−8 M, sorafenib 5 nM
Description: Cell lines and treatments HepG2, Hep3b, and SNU-387 (HB-8065) cell lines were purchased from ATCC (Manassas, USA) and cultured as recommended. The cells were kept at 37° C. and 5% CO2, and periodically validated by means of STR analysis (GenePrint, Promega, Barcelona, Spain) and analyzed to detect mycoplasma contamination. THLE-2 cells were cultured according to the manufacturer's instructions. […] Positive controls [IGF-1 (10^−6M)] and negative controls [Paclitaxel (10^−7M)] were used.
The determination of cell proliferation, migration, apoptosis, clone and tumorsphere formation was performed as published previously.

[1] = system: Hep3b-induced xenograft tumors; experiment: Hep3b xenograft model, tumor growth and necrosis; format: in vivo, nude mice; conditions: sorafenib 30 mg/kg in drinking water for 3 days; histopathology vs vehicle
Description: For in vitro and in vivo administrations, pladienolide-B (Santa Cruz, Heidelberg, Germany) was resuspended in DMSO (Sigma-Aldrich, Madrid, Spain). For in vitro administration, sorafenib (LC Laboratories, Woburn, USA) was dissolved in DMSO. […] For in vivo tests, sorafenib was dissolved in Cremophor EL/ethanol (50:50).
Experiments with xenograft mice were conducted in accordance with the European Animal Care Regulations under the approval of the university/regional government research ethics committees. 5×10^6 Hep3b cells (n=16 mice; n=32 tumors) in 50 μl of BME (Trevigen, Gaithersburg, MD) were subcutaneously grafted on both flanks of eight-week-old male Fox1nu/Foxn1nu nude mice (Janvier Labs, Le Genest-Saint-Isle, France). Tumor growth was monitored twice a week for 2 months by means of using a digital caliper. In the third week after grafting, when tumors were visible, the mice were treated with vehicle, pladienolide B, sorafenib, or the combination thereof (n=4 mice/treatment; n=8 tumors/treatment). Sorafenib (30 mg/kg) was administered dissolved in drinking water for 3 days; whereas the water of the remaining mice was treated with cremophor/ethanol vehicle. Pladienolide-B (10^−8M) was injected intratumorally on the second day of treatment with sorafenib. […] Tumor necrosis was evaluated after hematoxylin and eosin staining by expert pathologists.

CNC(=O)c1cc(Oc2ccc(NC(=O)Nc3ccc(Cl)c(C(F)(F)F)c3)cc2)ccn1 [sorafenib, reference compound]
viability of THLE-2 cells (THLE-2 cells): significantly reduced same | tumor necrosis [1]: greater necrosis than tumors treated with vehicle
